In patent US20230167467A1, “METHODS AND COMPOSITIONS FOR THE PRODUCTION OF ISOBUTENE” (University of Alaska Anchorage, priority 2020, published 2023):

Key:
[1] = test system: Engineered strains of E. coli; assay type: cell-based
[2] = purified MVD on 3-HIV; cited from earlier work
[3] = after solvent exposure, vs positive control

Molecule: CCC(C)CC [3-methylpentane]
- expression of acid resistance genes (gad, adi families) [1]: downregulated
- expression of chaperone proteins groLS, spy, and dnaJK [1]: highly upregulated
- expression of dihydroxyacetone kinase genes dhaKLM [1]: upregulated
- expression of flagellar protein synthesis and assembly genes [1]: downregulated
- expression of gadE and adiY [1]: significantly downregulated
- expression of galactitol metabolism genes gatABD [1]: upregulated
- expression of glpABC (glycerol to glycerone phosphate) [1]: upregulated
- expression of heat shock proteins and chaperones hslJORUV [1]: strongest increases
- expression of ibpAB and clpAB (protein protection and repair) [1]: strongest increases
- expression of marABC (multiple antibiotic resistance) [1]: upregulated
- expression of nitrate reductase genes narGHJKP [1]: upregulated
- expression of phage shock genes pspABCDE [1]: highly upregulated
- change in expression of gene adiA [1, 3]: −2.19 ± 0.86
- change in expression of gene adiC [1, 3]: −1.60 ± 1.02
- change in expression of gene adiY [1, 3]: −2.88 ± 0.66
- change in expression of gene bhsA [1, 3]: 2.98 ± 0.60
- change in expression of gene bssR [1, 3]: 1.81 ± 0.44
- change in expression of gene bssS [1, 3]: 5.42 ± 0.84
- change in expression of gene clpA [1, 3]: 2.69 ± 0.63
- change in expression of gene clpB [1, 3]: 5.30 ± 0.69
- change in expression of gene clpP [1, 3]: 1.74 ± 0.59
- change in expression of gene coaA [1, 3]: −1.35 ± 0.88
- change in expression of gene coaD [1, 3]: 1.13 ± 0.90
- change in expression of gene cspA [1, 3]: −4.58 ± 0.58
- change in expression of gene cspB [1, 3]: −4.38 ± 1.31
- change in expression of gene cspC [1, 3]: −2.37 ± 0.90
- change in expression of gene cspD [1, 3]: 2.53 ± 0.57
- change in expression of gene cspE [1, 3]: −0.36 ± 0.63
- change in expression of gene cspF [1, 3]: −3.22 ± 1.04
- change in expression of gene dhaK [1, 3]: 4.32 ± 0.58
- change in expression of gene dhaL [1, 3]: 3.43 ± 0.62
- change in expression of gene dnaJ [1, 3]: 5.07 ± 0.69
- change in expression of gene dnaK [1, 3]: 4.55 ± 0.66
- change in expression of gene fabA [1, 3]: −0.74 ± 0.75
- change in expression of gene fabB [1, 3]: 2.87 ± 0.66
- change in expression of gene fabD [1, 3]: −0.97 ± 0.52
- change in expression of gene flgA [1, 3]: −1.37 ± 1.53
- change in expression of gene flgB [1, 3]: −3.25 ± 1.50
- change in expression of gene flgC [1, 3]: −4.33 ± 1.93
- change in expression of gene flgD [1, 3]: −3.56 ± 1.87
- change in expression of gene flgE [1, 3]: −2.72 ± 1.17
- change in expression of gene flgF [1, 3]: −2.66 ± 1.57
- change in expression of gene flgG [1, 3]: −3.06 ± 1.48
- change in expression of gene flgH [1, 3]: −2.28 ± 1.70
- change in expression of gene gabD [1, 3]: 0.24 ± 1.31
- change in expression of gene gabP [1, 3]: 1.14 ± 1.28
- change in expression of gene gabT [1, 3]: 0.62 ± 1.27
- change in expression of gene gadA [1, 3]: −1.66 ± 0.69
- change in expression of gene gadB [1, 3]: −1.26 ± 0.80
- change in expression of gene gadC [1, 3]: −0.31 ± 0.80
- change in expression of gene gadE [1, 3]: −2.58 ± 0.60
- change in expression of gene gadW [1, 3]: −2.78 ± 0.95
- change in expression of gene gadX [1, 3]: −2.92 ± 0.57
- change in expression of gene gadY [1, 3]: −4.93 ± 0.81
- change in expression of gene glpA [1, 3]: 8.12 ± 0.87
- change in expression of gene glpB [1, 3]: 5.89 ± 0.63
- change in expression of gene glpC [1, 3]: 6.69 ± 0.79
- change in expression of gene groL [1, 3]: 4.27 ± 0.57
- change in expression of gene groS [1, 3]: 4.18 ± 0.50
- change in expression of gene hchA [1, 3]: 1.65 ± 0.60
- change in expression of gene hslJ [1, 3]: 2.40 ± 0.65
- change in expression of gene hslO [1, 3]: 3.37 ± 0.64
- change in expression of gene hslR [1, 3]: 3.53 ± 0.65
- change in expression of gene hslU [1, 3]: 3.65 ± 0.55
- change in expression of gene hslV [1, 3]: 3.32 ± 0.61
- change in expression of gene ibpA [1, 3]: 8.01 ± 1.21
- change in expression of gene ibpB [1, 3]: 9.01 ± 1.50
- change in expression of gene lhgO [1, 3]: 1.21 ± 1.64
- change in expression of gene lipA [1, 3]: 0.26 ± 0.60
- change in expression of gene lipB [1, 3]: 0.71 ± 0.63
- change in expression of gene narG [1, 3]: 4.24 ± 0.65
- change in expression of gene narH [1, 3]: 3.41 ± 0.61
- change in expression of gene narI [1, 3]: 2.28 ± 0.92
- change in expression of gene narJ [1, 3]: 2.34 ± 0.68
- change in expression of gene narK [1, 3]: 2.75 ± 0.84
- change in expression of gene potA [1, 3]: −2.43 ± 0.80
- change in expression of gene potB [1, 3]: −0.51 ± 1.28
- change in expression of gene potC [1, 3]: −0.27 ± 1.18
- change in expression of gene pspA [1, 3]: 9.23 ± 0.55
- change in expression of gene pspB [1, 3]: 7.09 ± 0.68
- change in expression of gene rpoA [1, 3]: 0.54 ± 0.44
- change in expression of gene rpoB [1, 3]: 0.33 ± 0.40
- change in expression of gene rpoC [1, 3]: 0.70 ± 0.39
- change in expression of gene rpoD [1, 3]: 3.38 ± 0.70
- change in expression of gene rpoE [1, 3]: −2.07 ± 0.62
- change in expression of gene rpoH [1, 3]: 0.71 ± 0.52
- change in expression of gene rpoN [1, 3]: −1.28 ± 0.49
- change in expression of gene rpoS [1, 3]: 0.53 ± 0.47
- change in expression of gene rpoZ [1, 3]: −1.07 ± 0.53
- change in expression of gene spy [1, 3]: 4.73 ± 0.87
- change in expression of gene tatA [1, 3]: −1.05 ± 0.51
- change in expression of gene tatB [1, 3]: −0.93 ± 0.58
- change in expression of gene tatC [1, 3]: −0.35 ± 1.08
- change in expression of gene tatD [1, 3]: −1.73 ± 1.12
- change in expression of gene tatE [1, 3]: 0.79 ± 0.63
- number of genes with significant changes in expression ([1]; vs control, Bon Ferroni corrected p-value<0.05): 414 genes

B1: MVD: mevalonate diphosphate decarboxylase of Saccharomyces cerevisiae, enzyme and gene/transcript (optimized gene SEQ ID NO:2) (protein)
chain: MTVYTASVTAPVNIATLKYWGKRDTKLNLPTNSSISVTLSQDDLRTLTSAATAPEFERDTLWLNGEPHSIDNERTQNCLRDLRQLRKEMESKDASLPTLSQWKLHIVSENNFPTAAGLASSAAGFAALVSAIAKLYQLPQSTSEISRIARKGSGSACRSLFGGYVAWEMGKAEDGHDSMAVQIADSSDWPQMKACVLVVSDIKKDVSSTQGMQLTVATSELFKERIEHVVPKRFEVMRKAIVEKDFATFAKETMMDSNSFHATCLDSFPPIFYMNDTSKRIISWCHTINQFYGETIVAYTFDAGPNAVLYYLAENESKLFAFIYKLFGSVPGWDKKFTTEQLEAFNHQFESSNFTARELDLELQKDVARVILTQVGSGPQETNESLIDAKTGLPKE
modifications: optimized gene; MVD optimized gene sequence
- Isobutene production [2]: 6.44±0.95 pmol*min-1 *mg protein-1
